Test results: patent US10941126B2, “Bridged bicycloalkyl-substituted aminothiazoles and their methods of use” (Temple University—Of The Commonwealth System of Higher …, priority 2017, dated 2021)

Key:
CDK9 = target: T1, CDK9 (Homo sapiens, UniProt P50750); test: Kinase enzymatic assay (Nanosyn, microfluidic), IC50 curves against CDKs; assay type: biochemical
T1 construct: Nanosyn (contract assay)
Experimental: (§1) HDAC inhibitory activity assays were performed using FLUOR DE LYS® HDAC fluorometric activity assay kit from Enzo following the manufacturer's instructions. GloMax®-Multi Detection System (Promega) was used to read the fluorescence signals. Histone methyltransferase and demethylase enzymatic assays were performed by BPS Bioscience at 10 μM in duplicates. Kinase enzymatic assays were performed by Nanosyn using microfluidic technology. 250 kinome screening was done in duplicates using MC180295 at 1 μM. IC50 curves against 10 CDKs were created for MC180295. The human kinome tree was annotated using the online Kinome Render software (Chartier, M., Chénard, T., Barker, J., and Najmanovich, R. (2013). PeerJ 1, e126). Isotope kinase assay was performed using previously described methods (Garriga, J., Peng, J., Parreño, M., Price, D. H., Henderson, E. E., and Graña, X. (1998). Oncogene 17, 3093-3102) using recombinant active full-length CDK9/CyclinT1 (Millipore, 14-685) and SMARCA4 (Abcam, ab82237) in the presence or absence of CDK9 inhibitors.

GSK-3a = target: T2, GSK-3a (Homo sapiens, UniProt P49840); test: 250 kinome screening at 1 μM; assay type: biochemical
T2 construct: Nanosyn (contract assay)
Experimental: as §1

[1] = tested on: cancer cell lines and normal IMR90 cells; test: Anti-proliferation assay (trypan blue exclusion); assay type: cell-based, human; conditions: four days after one-time exposure
Experimental: Cells were seeded in 96-well plates at 40% confluency in triplicates. Fresh medium was changed the next day and drugs were added directly. After mixing thoroughly, plates were cultured in a 37° C. incubator for two more days. Drug-free fresh medium was changed the fourth day. The cells were collected on day 5 by trypsin, suspended in medium, mixed with trypan blue (1:1 ratio), and counted using LUNA II automated cell counter. Each sample was counted at least three times and the average numbers were used for the analysis. Each treatment condition was performed at least in triplicates.

HL60 cell line = test: HL60 cell differentiation (CD11b); assay type: cell-based, human; conditions: four-day single-dose treatment
Experimental: For drug screening and dose response validations, GFP positive cells were detected by Millipore Guava flow cytometer (EMD, Millipore). Cell cycle analysis was performed using BD FACSCalibur™ by propidium iodide staining four days after drug treatment. Sub-G1 population percentage was also included to measure apoptotic cell proportion. Data were analyzed using FlowJo software version 10.2. For the cell differentiation analysis, cells were washed and stained with propidium iodide (PI), CD11 b (BD Biosciences, #562793) and the isotype control IgG (BD Biosciences, #555748). Flow cytometry analysis was performed on a Millipore Guava flow cytometer (EMD, Millipore). For the ID8 in vivo experiments, ascites was drained from 5-10 mice per group and incubated in ACK buffer (Thermo Fisher) to lyse red blood cells for 10 minutes, then washed. Ascites from each mouse was individually lysed and prepared for flow cytometry. Mononuclear cells collected were cultured for 4 hours in RPMI with 5% Fetal Bovine Serum and in the presence of Cell Stimulation Cocktail (plus protein transport inhibitors; eBioscience). […] Flow cytometry acquisition was performed on an LSRII cytometer (BD Biosciences) and data were analyzed using FlowJo software version 10.2.

YB5 cells = test: GFP reactivation in YB5 cells (flow cytometry); assay type: cell-based, human; conditions: YB5 cells, one-time 4-day treatment

T1 sequence (P50750 whole entry): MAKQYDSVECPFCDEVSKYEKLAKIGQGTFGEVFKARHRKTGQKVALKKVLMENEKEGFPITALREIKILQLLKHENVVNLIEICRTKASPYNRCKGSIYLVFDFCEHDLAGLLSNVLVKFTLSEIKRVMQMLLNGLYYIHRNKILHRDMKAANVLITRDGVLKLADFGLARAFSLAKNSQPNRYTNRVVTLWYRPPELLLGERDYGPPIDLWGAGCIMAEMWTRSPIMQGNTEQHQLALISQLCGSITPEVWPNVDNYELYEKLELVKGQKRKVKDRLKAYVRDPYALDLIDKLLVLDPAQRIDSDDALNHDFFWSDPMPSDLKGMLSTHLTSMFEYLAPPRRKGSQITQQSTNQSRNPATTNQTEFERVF
T1 sequence (O60563 whole entry partner): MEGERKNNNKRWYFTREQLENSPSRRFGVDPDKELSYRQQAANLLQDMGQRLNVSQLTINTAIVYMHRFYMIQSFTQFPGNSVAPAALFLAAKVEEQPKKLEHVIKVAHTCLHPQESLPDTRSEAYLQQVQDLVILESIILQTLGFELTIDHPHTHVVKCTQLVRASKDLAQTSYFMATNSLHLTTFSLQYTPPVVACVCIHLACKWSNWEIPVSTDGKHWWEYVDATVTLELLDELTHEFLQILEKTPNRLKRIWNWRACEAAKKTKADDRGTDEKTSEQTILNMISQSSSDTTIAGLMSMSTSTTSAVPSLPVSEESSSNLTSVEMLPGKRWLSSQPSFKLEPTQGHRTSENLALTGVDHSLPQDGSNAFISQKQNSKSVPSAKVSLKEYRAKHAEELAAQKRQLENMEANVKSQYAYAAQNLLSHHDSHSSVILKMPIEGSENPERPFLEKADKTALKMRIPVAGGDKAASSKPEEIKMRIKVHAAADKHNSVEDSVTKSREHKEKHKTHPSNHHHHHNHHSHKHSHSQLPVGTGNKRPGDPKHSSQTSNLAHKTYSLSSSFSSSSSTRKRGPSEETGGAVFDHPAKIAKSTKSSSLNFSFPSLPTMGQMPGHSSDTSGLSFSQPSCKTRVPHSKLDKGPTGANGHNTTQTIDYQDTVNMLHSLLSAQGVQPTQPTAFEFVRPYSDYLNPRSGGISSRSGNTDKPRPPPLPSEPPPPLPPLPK
T2 sequence (P49840 whole entry): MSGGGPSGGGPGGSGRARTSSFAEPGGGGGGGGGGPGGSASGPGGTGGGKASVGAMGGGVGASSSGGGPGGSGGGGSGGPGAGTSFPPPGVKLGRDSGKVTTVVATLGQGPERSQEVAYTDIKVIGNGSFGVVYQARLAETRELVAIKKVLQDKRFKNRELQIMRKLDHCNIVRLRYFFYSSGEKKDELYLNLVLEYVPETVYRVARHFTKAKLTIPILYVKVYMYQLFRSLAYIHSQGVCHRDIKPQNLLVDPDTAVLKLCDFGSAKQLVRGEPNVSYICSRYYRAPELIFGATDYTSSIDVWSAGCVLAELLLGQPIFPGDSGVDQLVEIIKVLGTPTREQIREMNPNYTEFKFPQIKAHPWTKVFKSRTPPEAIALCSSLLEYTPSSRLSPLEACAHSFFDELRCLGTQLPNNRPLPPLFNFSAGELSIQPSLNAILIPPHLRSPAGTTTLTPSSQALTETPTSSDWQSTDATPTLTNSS

SMILES: Nc1nc(N[C@H]2CC3CCC2C3)sc1C(=O)c1ccccc1[N+](=O)[O-] (stereo partly drawn) [MC180295]
- IC50 (CDK9): 5 nM
- selectivity for CDK9 over other CDKs (CDK9; 10 different CDKs): at least 22 fold
- inhibition (GSK-3a): inhibited
- reduction of proliferation, cancer cells vs normal cells (IMR90) [1]: more effective in reducing proliferation of cancer cells than normal control cells
- differentiation marker CD11b (HL60 cell line): significant induction
- concentration at which active (GFP re-expression) (YB5 cells): 50 nM
